Consider eleven compounds from patent US20070244110A1, “Treatment of prostate cancer, melanoma or hepatic cancer” (ZENYAKU KOGYO KABUSHIKI KAISHA, priority 2006, published 2007).

One data set deals with Hepatoma HepG2 cells. Put plainly: In vitro anti-tumor experiment, growth inhibition of HepG2 cells. In kind it is cell-based. Conditions: HepG2, 72 hours incubation. The procedure: (§1) Hepatoma HepG2 cells were cultured in a MEM culture medium (containing 10% fetal bovine serum, 25 mM HEPES and 0.1 mg/ml kanamycin) under conditions of 5% carbon dioxide at 37° C. HepG2 cells were harvested as single free cells by a tripsin/EDTA treatment in the logarithmic growth phase, and a cell suspension solution consisted of 2×10^4 cells per ml was prepared with MEM culture medium (containing 10% fetal bovine serum, 25 mM HEPES and 0.1 mg/ml kanamycin). The test compound was dissolved in DMSO, then diluted with RPMI1640 culture medium (containing 10% fetal bovine serum, 25 mM HEPES, 0.1 mg/ml kanamycin), and adjusted to a concentration of 2.0×10^−9 to 2.0×10^−3 M.
(§2) 0.1 ml of the cell suspension solution was put in each well of a 96-well plate, then cultured for 24 hours to make the cells adhere to the microplates, and 0.1 ml of the test compound was added in each well and incubated for 72 hours under conditions of 5% carbon dioxide at 37° C. The 50% growth inhibition concentration (GI50 value μM) was computed from the growth inhibition rates at various test sample concentrations, and the results are shown in Table 1.

Data set [1] deals with PC-3 prostate cancer cells. As to the kind of experiment: In vitro anti-tumor experiment, growth inhibition of PC-3 cells. It counts as cell-based. Conditions: PC-3, 72 hours incubation. The procedure: as §1, §2
(§3) When using cells other than HepG2 cells, the following culture media were used instead of the MEM culture medium, and the following single cell suspensions were prepared with the following media:
PC-3 prostate cancer cells:
F12K culture medium containing 10% fetal bovine serum, 2×10^4 cell suspension

The next data set relates to B16F10 melanoma cells. As to the kind of experiment: In vitro anti-tumor experiment, growth inhibition of B16F10 cells. In kind it is cell-based. To be noted: B16F10, 72 hours incubation. The procedure: as §1, §2, §3
RPMI1640 culture medium containing 10% fetal bovine serum, 1×10^4 cell suspension

The subject of data set [2] is PC-3 prostate cancer cells. Put plainly: In vivo anti-tumor experiment, PC-3 human tumor xenograft. Further details: species or system BALB/c nude mice. Conditions: 6 days a week for two weeks, day 14. The procedure:
(§4) Human tumor xenografts were generated with PC-3 prostate cancer cells, and WiDr colon cancer cells, and were grown as subcutaneous tumors in mutant BALB/c nude mice. Each nude mouse was subcutaneously inoculated with a tumor fragment of 2 mm by 2 mm by 2 mm. When tumors reached a volume of 100-300 mm^3, animals were divided randomly into test groups of five mice (day 0). The samples were orally administered at a dosage of 100, 200 or 400 mg/kg once daily, 6 days a week for two weeks. The length (L) and width (W) of the subcutaneous tumor mass were measured by calipers in live mice, and the tumor volume (TV) was calculated as: TV=(L×W^2)/2. The tumor volume at day n was expressed as relative tumor volume (RTV), according to the formula RTV=TVn/TV0, where TVn is the tumor volume at day n, and TV0 is the tumor volume at day 0. T/C% on day 14 was determined by calculating RTV as: T/C%=100×(mean RTV of treated group)/(mean RTV of control group). The specimens in which T/C (%) was 50% or less and having a significant difference at P value 1% on one side in a Mann-Whitney U test were evaluated as effective (+).
For orientation: In xenograft studies the graft and the host belong to different species.

A further data set deals with WiDr colon cancer cells. As to the kind of experiment: In vivo anti-tumor experiment, WiDr human tumor xenograft (reference). To be noted: 6 days a week for two weeks, day 14. Also noted: species or system BALB/c nude mice. The procedure:
as §4

As to `FC(F)c1nc2ccccc2n1-c1nc(N2CCOCC2)nc(N2CCOCC2)n1` [Compound 1, 2-(2-difluoromethylbenzimidazol-1-yl)-4,6-dimorpholino-1,3,5-triazine], the 50% growth inhibitory concentration (GI50) (commonly the concentration that inhibits growth by half) with Hepatoma HepG2 cells (Homo sapiens) was found to be 1150 nM. In data set [1] (Homo sapiens), the concentration for 50% growth inhibition (GI50) came out at 240 nM. Besides, it took 310 nM to inhibit growth in the data set with B16F10 melanoma cells (Mus musculus, B16-F10) by half (GI50). In data set [2] (400 mg/kg orally once daily), the “Evaluation effective (+), Prostate Cancer” value is “+ (T/C (%) was 50% or less and having a significant difference at P value 1% on one side in a Mann-Whitney U test were evaluated as effective (+))”; the “T/C (%) Prostate Cancer” value worked out at 24.8%. Besides, in the data set with WiDr colon cancer cells (400 mg/kg orally once daily), the “Evaluation effective (+), Colon Cancer (reference)” value (“Evaluation effective … (reference)” below) is “+ (T/C (%) was 50% or less and having a significant difference at P value 1% on one side in a Mann-Whitney U test were evaluated as effective (+))”; the “T/C (%) Colon Cancer (reference)” value was 33.2%.

`COc1cccc2c1nc(C(F)F)n2-c1nc(N2CCOCC2)nc(N2CCOCC2)n1` [Compound 4, 2-(2-difluoromethyl-4-methoxybenzimidazol-1-yl)-4,6-dimorpholino-1,3,5-triazine]: the 50% growth inhibitory concentration (GI50) in the data set with Hepatoma HepG2 cells (Homo sapiens) is 340 nM; in data set [1] (Homo sapiens), 190 nM; with B16F10 melanoma cells (Mus musculus, B16-F10) it was 250 nM.

For the compound `COc1cccc2c1nc(C(F)F)n2-c1nc(N2CCOCC2)cc(N2CCOC(C)(C)C2)n1` [Compound 5, 2-(2-difluoromethyl-4-methoxybenzimidazol-1-yl)-4-(2,2-dimethylmorpholino)-6-morpholinopyrimidine], the melting point – broadly, the temperature, or range, at which the solid turns liquid – is 160 to 162 °C. In addition, in data set [2] (200 mg/kg orally once daily), the “Evaluation effective (+), Prostate Cancer” value was “+ (T/C (%) was 50% or less and having a significant difference at P value 1% on one side in a Mann-Whitney U test were evaluated as effective (+))”; the “T/C (%) Prostate Cancer” value came to 39.1%. For the same compound, the “Evaluation effective … (reference)” value in the data set with WiDr colon cancer cells (100 mg/kg orally once daily) was “+ (T/C (%) was 50% or less and having a significant difference at P value 1% on one side in a Mann-Whitney U test were evaluated as effective (+))”.

With `COc1cccc2c1nc(C(F)F)n2-c1nc(N2CCOCC2)cc(N2C[C@@H](C)O[C@@H](C)C2)n1` [Compound 6, 2-(2-difluoromethyl-4-methoxybenzimidazol-1-yl)-4-(cis-2,6-dimethylmorpholino)-6-moropholinopyrimidine], the GI50 in the data set on Hepatoma HepG2 cells stood at 890 nM; in data set [1] it was 540 nM; in the data set with B16F10 melanoma cells, 1210 nM. Moreover, the “Evaluation effective (+), Prostate Cancer” value in data set [2] (100 mg/kg orally once daily) is “+ (T/C (%) was 50% or less and having a significant difference at P value 1% on one side in a Mann-Whitney U test were evaluated as effective (+))”; in data set [2] (200 mg/kg orally once daily), “+ (T/C (%) was 50% or less and having a significant difference at P value 1% on one side in a Mann-Whitney U test were evaluated as effective (+))”. The “T/C (%) Prostate Cancer” value in data set [2] (100 mg/kg orally once daily) came to 32.3%; in data set [2] (200 mg/kg orally once daily), 16.2%. For the same compound, the “Evaluation effective … (reference)” value in the data set on WiDr colon cancer cells (100 mg/kg orally once daily) was “+ (T/C (%) was 50% or less and having a significant difference at P value 1% on one side in a Mann-Whitney U test were evaluated as effective (+))”; in the data set with WiDr colon cancer cells (200 mg/kg orally once daily), “+ (T/C (%) was 50% or less and having a significant difference at P value 1% on one side in a Mann-Whitney U test were evaluated as effective (+))”. The “T/C (%) Colon Cancer (reference)” value with WiDr colon cancer cells (100 mg/kg orally once daily) is 24.8%; in the data set with WiDr colon cancer cells (200 mg/kg orally once daily) it was 29.5%.

With `Oc1cccc2c1nc(C(F)F)n2-c1nc(N2CCOCC2)nc(N2CCOCC2)n1` [Compound 8, 2-(2-difluoromethyl-4-hydroxybenzimidazol-1-yl)-4,6-dimorpholino-1,3,5-triazine], the GI50 with Hepatoma HepG2 cells (Homo sapiens) worked out at 120 nM; in data set [1] (Homo sapiens), 10 nM; with B16F10 melanoma cells (Mus musculus, B16-F10), 18 nM.

`OCC1CCCN1c1nc(N2CCOCC2)nc(-n2c(C(F)F)nc3c(O)cccc32)n1` (centres unmarked) [Compound 9, 2-(2-difluoromethyl-4-hydroxybenzimidazol-1-yl)-4-(2-hydroxymethylpyrrolidin-1-yl)-6-morpholino-1,3,5-triazine] gave a GI50 in the data set on Hepatoma HepG2 cells (Homo sapiens) of 150 nM. It took 20 nM to inhibit growth in data set [1] (Homo sapiens) by half (GI50). Further, it took 63 nM to inhibit growth in the data set with B16F10 melanoma cells (Mus musculus, B16-F10) by half (GI50). Besides, in data set [2] (200 mg/kg orally once daily), the “Evaluation effective (+), Prostate Cancer” value is “+ (T/C (%) was 50% or less and having a significant difference at P value 1% on one side in a Mann-Whitney U test were evaluated as effective (+))”; the “T/C (%) Prostate Cancer” value turned out to be 31.8%. In addition, in the data set on WiDr colon cancer cells (200 mg/kg orally once daily), the “Evaluation effective … (reference)” value was “+ (T/C (%) was 50% or less and having a significant difference at P value 1% on one side in a Mann-Whitney U test were evaluated as effective (+))”; the “T/C (%) Colon Cancer (reference)” value came to 49.6%.

`CC1(C)COCCN1c1cc(N2CCOCC2)nc(-n2c(C(F)F)nc3c(O)cccc32)n1` [Compound 10, 2-(2-difluoromethyl-4-hydroxybenzimidazol-1-yl)-4-(3,3-dimethylmoropholino)-6-morpholinopyrimidine]: the figures for the GI50 (in the data set on Hepatoma HepG2 cells; in data set [1]; in the data set on B16F10 melanoma cells) were 90 nM, 20 nM and 42 nM, respectively. In addition, the “Evaluation effective (+), Prostate Cancer” value in data set [2] (200 mg/kg orally once daily) was “+ (T/C (%) was 50% or less and having a significant difference at P value 1% on one side in a Mann-Whitney U test were evaluated as effective (+))”; in data set [2] (400 mg/kg orally once daily) it was “+ (T/C (%) was 50% or less and having a significant difference at P value 1% on one side in a Mann-Whitney U test were evaluated as effective (+))”. The results for the “T/C (%) Prostate Cancer” value in data set [2] (200 mg/kg orally once daily) and in data set [2] (400 mg/kg orally once daily) were 38.1% and 20.8%, respectively. Also, the “Evaluation effective … (reference)” value in the data set on WiDr colon cancer cells (200 mg/kg orally once daily) was “+ (T/C (%) was 50% or less and having a significant difference at P value 1% on one side in a Mann-Whitney U test were evaluated as effective (+))”. Also, the “T/C (%) Colon Cancer (reference)” value is 46.2% with WiDr colon cancer cells (200 mg/kg orally once daily) and 63.1% in the data set on WiDr colon cancer cells (400 mg/kg orally once daily).

The compound `C[C@@H]1CN(c2nc(N3CCOCC3)nc(-n3c(C(F)F)nc4c(O)cccc43)n2)C[C@H](C)O1` [Compound 11, 2-(2-difluoromethyl-4-hydroxybenzimidazol-1-yl)-4-(cis-2,6-dimethylmorpholino)-6-morpholino-1,3,5-triazine] showed a melting point of 214 to 215 °C. In addition, the “T/C (%) Prostate Cancer” value in data set [2] (200 mg/kg orally once daily) was determined as 66.5%. Also, in data set [2] (400 mg/kg orally once daily), the “Evaluation effective (+), Prostate Cancer” value is “+ (T/C (%) was 50% or less and having a significant difference at P value 1% on one side in a Mann-Whitney U test were evaluated as effective (+))”; the “T/C (%) Prostate Cancer” value was found to be 44.3%. Besides, in the data set with WiDr colon cancer cells (200 mg/kg orally once daily), the “T/C (%) Colon Cancer (reference)” value came to 85.4%. For the same compound, the “T/C (%) Colon Cancer (reference)” value in the data set on WiDr colon cancer cells (400 mg/kg orally once daily) is reported as 83.5%.

For `CC(=O)Oc1cccc2c1nc(C(F)F)n2-c1nc(N2CCOCC2)cc(N2C[C@@H](C)O[C@@H](C)C2)n1` [Compound 13, 2-(2-difluoromethyl-4-acetoxybenzimidazol-1-yl)-4-(cis-2,6-dimethylmoropholino)-6-morpholinopyrimidine], in data set [2] (200 mg/kg orally once daily), the “T/C (%) Prostate Cancer” value amounted to 65.4%.

Regarding `COC(=O)Oc1cccc2c1nc(C(F)F)n2-c1nc(N2CCOCC2)cc(N2CCOC(C)(C)C2)n1` [Compound 14, 2-(2-difluoromethyl-4-methoxycarbonyloxybenzimidazol-1-yl)-4-(2,2-dimethyl-moropholino)-6-morpholinopyrimidine], in data set [2] (200 mg/kg orally once daily), the “Evaluation effective (+), Prostate Cancer” value was “+ (T/C (%) was 50% or less and having a significant difference at P value 1% on one side in a Mann-Whitney U test were evaluated as effective (+))”; the “T/C (%) Prostate Cancer” value is listed as 47.3%.

For `CCOC(=O)Oc1cccc2c1nc(C(F)F)n2-c1nc(N2CCOCC2)cc(N2C[C@@H](C)O[C@@H](C)C2)n1` [Compound 15, 2-(4-ethoxycarbonyloxy-2-difluoromethylbenzimidazol-1-yl)-4-(cis-2,6-dimethyl-moropholino)-6-morpholinopyrimidine], in data set [2] (200 mg/kg orally once daily), the “Evaluation effective (+), Prostate Cancer” value is “+ (T/C (%) was 50% or less and having a significant difference at P value 1% on one side in a Mann-Whitney U test were evaluated as effective (+))”; the “T/C (%) Prostate Cancer” value was 47.5%.
